Measurements published in the supplement of paper PMC10307832.

How the values were obtained:
Assay in all cases: relative viability (nuclei count vs DMSO), 5 days (fraction); higher = more cells survive
NCI-H358 = test system: NCI-H358
Method in brief: (§1)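 For relative viability, nuclei counts in treated wells were divided by those in vehicle wells. Lung cancer cell lines had been pin-tool dosed in 1536-well plates the day after seeding and cultured for 5 days, then fixed and stained in one step (final 0.05% Triton X-100, 1% formaldehyde, 1 ug/ml Hoechst) and imaged at 4×. Doses were one drug alone or a fixed anchor-drug dose plus five library-drug doses (not always all listed) in √10 steps, and values are duplicate-plate medians.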

NCI-H1915 = test system: NCI-H1915
Method in brief: as §1

LC-2-ad = test system: LC-2-ad
Method in brief: as §1

SW 1573 = test system: SW 1573
Method in brief: as §1

PC-3 [JPC-3] = test system: PC-3 [JPC-3]
Method in brief: as §1

RERF-LC-KJ = test system: RERF-LC-KJ
Method in brief: as §1

HOP-62 = test system: HOP-62
Method in brief: as §1

NCI-H1792 = test system: NCI-H1792
Method in brief: as §1

LXF-289 = test system: LXF-289
Method in brief: as §1

SK-LU-1 = test system: SK-LU-1
Method in brief: as §1

HCC-15 = test system: HCC-15
Method in brief: as §1

NCI-H2347 = test system: NCI-H2347
Method in brief: as §1

NCI-H2126 = test system: NCI-H2126
Method in brief: as §1

NCI-H1755 = test system: NCI-H1755
Method in brief: as §1

HCC-78 = test system: HCC-78
Method in brief: as §1

NCI-H647 = test system: NCI-H647
Method in brief: as §1

A-427 = test system: A-427
Method in brief: as §1

NCI-H1734 = test system: NCI-H1734
Method in brief: as §1

NCI-H522 = test system: NCI-H522
Method in brief: as §1

NCI-H1975 = test system: NCI-H1975
Method in brief: as §1

NCI-H2342 = test system: NCI-H2342
Method in brief: as §1

Compound O=c1cc(N2CCOCC2)oc2c(-c3cccc4c3sc3ccccc34)cccc12 + Nc1ncn([C@H]2C[C@H](O)[C@@H](CO)O2)c(=O)n1 [Decitabine] (partner 2 µM) has a relative viability (NCI-H358; first compound 0.01 µM) of 0.222, a relative viability (NCI-H358; first compound 0.03162 µM) of 0.218 and a relative viability (NCI-H358; first compound 0.1 µM) of 0.218. It also gave a relative viability (NCI-H358; first compound 0.3162 µM) of 0.21, a relative viability (NCI-H358; first compound 1 µM) of 0.193 and a relative viability (NCI-H1915; first compound 0.01 µM) of 0.28. For the same compound, the relative viability (NCI-H1915; first compound 0.03162 µM) was 0.253, the relative viability (NCI-H1915; first compound 0.1 µM) was 0.256 and the relative viability (NCI-H1915; first compound 0.3162 µM) was 0.291. The relative viability (NCI-H1915; first compound 1 µM) was 0.266, the relative viability (LC-2-ad; first compound 0.01 µM) was 0.736 and the relative viability (LC-2-ad; first compound 0.03162 µM) was 0.801. It also gave a relative viability (LC-2-ad; first compound 0.1 µM) of 0.79, a relative viability (LC-2-ad; first compound 0.3162 µM) of 0.822 and a relative viability (LC-2-ad; first compound 1 µM) of 0.893. The relative viability (SW 1573; first compound 0.01 µM) was 0.625, the relative viability (SW 1573; first compound 0.03162 µM) was 0.577 and the relative viability (SW 1573; first compound 0.1 µM) was 0.529. It also gave a relative viability (SW 1573; first compound 0.3162 µM) of 0.409, a relative viability (SW 1573; first compound 1 µM) of 0.665 and a relative viability (PC-3 [JPC-3]; first compound 0.01 µM) of 0.809. The relative viability (PC-3 [JPC-3]; first compound 0.03162 µM) was 0.859, the relative viability (PC-3 [JPC-3]; first compound 0.1 µM) was 0.874 and the relative viability (PC-3 [JPC-3]; first compound 0.3162 µM) was 0.814. It also gave a relative viability (PC-3 [JPC-3]; first compound 1 µM) of 0.811, a relative viability (RERF-LC-KJ; first compound 0.01 µM) of 0.746 and a relative viability (RERF-LC-KJ; first compound 0.03162 µM) of 0.697. It also gave a relative viability (RERF-LC-KJ; first compound 0.1 µM) of 0.778, a relative viability (RERF-LC-KJ; first compound 0.3162 µM) of 0.751 and a relative viability (RERF-LC-KJ; first compound 1 µM) of 0.712. For the same compound, the relative viability (HOP-62; first compound 0.01 µM) was 0.228, the relative viability (HOP-62; first compound 0.03162 µM) was 0.227 and the relative viability (HOP-62; first compound 0.1 µM) was 0.236. For the same compound, the relative viability (HOP-62; first compound 0.3162 µM) was 0.249, the relative viability (HOP-62; first compound 1 µM) was 0.196 and the relative viability (NCI-H1792; first compound 0.01 µM) was 0.581. It also gave a relative viability (NCI-H1792; first compound 0.03162 µM) of 0.531, a relative viability (NCI-H1792; first compound 0.3162 µM) of 0.556 and a relative viability (NCI-H1792; first compound 1 µM) of 0.561. For the same compound, the relative viability (LXF-289; first compound 0.01 µM) was 0.457, the relative viability (LXF-289; first compound 0.03162 µM) was 0.386 and the relative viability (LXF-289; first compound 0.1 µM) was 0.391. The relative viability (LXF-289; first compound 0.3162 µM) was 0.371, the relative viability (LXF-289; first compound 1 µM) was 0.392 and the relative viability (SK-LU-1; first compound 0.01 µM) was 0.641. For the same compound, the relative viability (SK-LU-1; first compound 0.03162 µM) was 0.621, the relative viability (SK-LU-1; first compound 0.1 µM) was 0.596 and the relative viability (SK-LU-1; first compound 0.3162 µM) was 0.621. The relative viability (SK-LU-1; first compound 1 µM) was 0.661, the relative viability (HCC-15; first compound 0.01 µM) was 0.632 and the relative viability (HCC-15; first compound 0.03162 µM) was 0.639. The relative viability (HCC-15; first compound 0.1 µM) was 0.774, the relative viability (HCC-15; first compound 0.3162 µM) was 0.59 and the relative viability (HCC-15; first compound 1 µM) was 0.724. For the same compound, the relative viability (NCI-H2347; first compound 0.01 µM) was 0.606, the relative viability (NCI-H2347; first compound 0.03162 µM) was 0.632 and the relative viability (NCI-H2347; first compound 0.1 µM) was 0.609. For the same compound, the relative viability (NCI-H2347; first compound 0.3162 µM) was 0.641, the relative viability (NCI-H2347; first compound 1 µM) was 0.603 and the relative viability (NCI-H2126; first compound 0.01 µM) was 0.558. The relative viability (NCI-H2126; first compound 0.03162 µM) was 0.609, the relative viability (NCI-H2126; first compound 0.1 µM) was 0.601 and the relative viability (NCI-H2126; first compound 0.3162 µM) was 0.559. It also gave a relative viability (NCI-H2126; first compound 1 µM) of 0.569, a relative viability (NCI-H1755; first compound 0.01 µM) of 0.755 and a relative viability (NCI-H1755; first compound 0.03162 µM) of 0.74. For the same compound, the relative viability (NCI-H1755; first compound 0.1 µM) was 0.711, the relative viability (NCI-H1755; first compound 0.3162 µM) was 0.696 and the relative viability (NCI-H1755; first compound 1 µM) was 0.719. For the same compound, the relative viability (HCC-78; first compound 0.01 µM) was 0.611, the relative viability (HCC-78; first compound 0.03162 µM) was 0.716 and the relative viability (HCC-78; first compound 0.1 µM) was 0.544. It also gave a relative viability (HCC-78; first compound 0.3162 µM) of 0.652, a relative viability (HCC-78; first compound 1 µM) of 0.692 and a relative viability (NCI-H647; first compound 0.01 µM) of 0.318. It also gave a relative viability (NCI-H647; first compound 0.03162 µM) of 0.356, a relative viability (NCI-H647; first compound 0.1 µM) of 0.382 and a relative viability (NCI-H647; first compound 0.3162 µM) of 0.419. The relative viability (NCI-H647; first compound 1 µM) was 0.371, the relative viability (A-427; first compound 0.01 µM) was 0.606 and the relative viability (A-427; first compound 0.03162 µM) was 0.552. For the same compound, the relative viability (A-427; first compound 0.1 µM) was 0.58, the relative viability (A-427; first compound 0.3162 µM) was 0.591 and the relative viability (A-427; first compound 1 µM) was 0.592. The relative viability (NCI-H1734; first compound 0.01 µM) was 0.584, the relative viability (NCI-H1734; first compound 0.03162 µM) was 0.508 and the relative viability (NCI-H1734; first compound 0.1 µM) was 0.536. For the same compound, the relative viability (NCI-H1734; first compound 0.3162 µM) was 0.498, the relative viability (NCI-H1734; first compound 1 µM) was 0.517 and the relative viability (NCI-H522; first compound 0.01 µM) was 0.709. For the same compound, the relative viability (NCI-H522; first compound 0.03162 µM) was 0.662, the relative viability (NCI-H522; first compound 0.1 µM) was 0.669 and the relative viability (NCI-H522; first compound 0.3162 µM) was 0.649. The relative viability (NCI-H522; first compound 1 µM) was 0.696, the relative viability (NCI-H1975; first compound 0.01 µM) was 0.438 and the relative viability (NCI-H1975; first compound 0.03162 µM) was 0.4. It also gave a relative viability (NCI-H1975; first compound 0.1 µM) of 0.394, a relative viability (NCI-H1975; first compound 0.3162 µM) of 0.371 and a relative viability (NCI-H1975; first compound 1 µM) of 0.353. It also gave a relative viability (NCI-H2342; first compound 0.01 µM) of 0.631, a relative viability (NCI-H2342; first compound 0.03162 µM) of 0.652 and a relative viability (NCI-H2342; first compound 0.1 µM) of 0.774. The relative viability (NCI-H2342; first compound 0.3162 µM) was 0.726 and the relative viability (NCI-H2342; first compound 1 µM) was 0.672.
